# Values quoted from earlier work, collected in patent US20210346426A1, “COMPOSITION AND METHOD FOR THE TREATMENT OF COVID-19” (priority 2020, published 2021).
# Columns and labels:
# [1] = even at high concentration
# [2] = after oral administration
# blood coagulation [3] = conditions: intravenous injection
# blood coagulation [4] = tested on: blood coagulation
Compound,Acidity (pKa) pKa2,effect in contact with skin [1],excreted unchanged in urine [2],oxidation of the citrate ion [2],coagulation times of the blood (blood coagulation [3]),effect on blood coagulation in vitro (blood coagulation [4])
"O=C(O)CC(O)(CC(=O)O)C(=O)O [Citric acid, 2-Hydroxypropane-1,2,3-tricarboxylic acid]",pKa2 = 4.76,not injurious,–,–,–,–
O=C(O)CC(O)(CC(=O)O)C(=O)O [citrate ion],–,–,less than 1%,rapidly and almost completely oxidized,shortens,acts as an anticoagulant
"O=C([O-])CC(O)(CC(=O)[O-])C(=O)[O-].[Na+].[Na+].[Na+] [sodium citrate, Sodium Citrate]",–,–,–,–,–,prevents the blood from coagulation
